According to patent US12521393B2, “Cytotoxicity targeting chimeras for CCR2-expressing cells” (GLAXOSMITHKLINE INTELLECTUAL PROPERTY DEVELOPMENT LIMITED, priority 2021, dated 2026):
Structures can show the parent of a compound that is named as a salt.

Legend:
[1] = tested on: endogenous target monocytes in human PBMC; assay: PBMC ex vivo monocyte depletion flow cytometry assay (Example 200); assay type: cell-based; conditions: with anti-cotinine antibody (SEQ ID NO: 11/12), 18-24 hours, EC50 in molar, read-out: Ex Vivo Depletion Assay pEC50 (converted)
Outline: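 Monocyte depletion is reported as pEC50, averaged or given individually across runs, and read by flow cytometry staining CD45, CD14 and CD4 with a viability dye. Compounds, diluted four-fold over 11 points from 1 mM DMSO stocks, were combined with 30 μg/mL Fc-enhanced anti-cotinine antibody and human PBMC, then incubated 18-24 h at 37° C.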

[2] = tested on: CCR2 expressing cells (CD11b+Ly6c+Hi) in peripheral blood; assay: In vivo depletion assay, flow cytometry of peripheral blood (Example 201); parameters: species or system human CCR2 knock-in mice (C57 background); conditions: hCCR2 knock-in mice, IV 0.1 mpk compound + 10 mpk anti-cotinine antibody (SEQ ID NO: 13/14), peripheral blood at 48 hr
Experimental: Stock solution preparation. Stock solutions of compounds of Formula (I) were prepared at 20 mg/mL and 100 mg/mL in […] for PK/PD and dose tolerability studies respectively. Stock solutions were stored at […] until further usage. on the day of experiment, the stock Solution of the compound of Formula (I) was removed from storage at […] and thawed at room temperature. Anti-cotinine antibody having a heavy chain sequence of SEC ID NO: 13 and a light chain sequence of SEQ ID NO: 14 (rabbit variable region sequence with mouse IgG2a Fc domain), if required was removed from storage at −80° C. and thawed at room temperature. Antibody vials were immediately transferred into wet ice after thawing. Compounds of Formula (I) were further diluted in DMSO as per experimental requirements.
The formulation composition was Saline: DMSI: PBS.
Saline was added based on the quantity required and then stock solution of the compound of Formula (I) prepared in DMSO, followed by addition of antibody in PBS. Formulations were incubated at room temperature for 30 minutes before administration to the mouse. DMSO was used at 1 to % (v/v) in the final formulation.
After bleeding, each mouse was sacrificed by cervical dislocation. […] Flow Cytometry Analysis:
CCR2 depletion in peripheral blood was determined by flow cytometry. Briefly, peripheral blood was collected from all animals at the end of study termination and processed. Blood samples were lysed using 1×RBC Lysis buffer and the resulting cell pellet was washed twice in FACS buffer (HBSS containing 5% FBS). Cells were subjected to Fc blocking using mouse Fc block from Biolegend (Trustain, anti-mouse CD16/32, Cat: 101319) to block non-specific binding followed by surface staining for immune markers (CD45, CD3, CD11 b, Ly6C, human CCR2). Surface staining was done for 30 minutes in ice and cells were washed twice to remove unbound antibodies. Cells were stained with 7AAD to determine viability and acquired on BD FACSVerse flow cytometer. Appropriate FMO controls and single-color controls were included in the experiment for gating and compensation respectively.
Percent depletion of CD11 b+Ly6c+Hi cells and CCR2 expression for the different treatment groups was determined.

SMILES	EC50 [1] [nM]	% Depletion of CCR2 expressing cells [2] [%]
CC(C)N(C)[C@@H]1CC[C@H](N2CC[C@H](Nc3ncnc4ccc(C(F)(F)F)cc34)C2=O)[C@H](NC(=O)[C@H]2CC[C@H](N3CCN(C(=O)CCCCCCCCNC(=O)[C@H]4CC(=O)N(C)[C@@H]4c4cccnc4)CC3)CC2)C1 [Example 155, (2S,3S)-N-(9-(4-((1R,4r)-4-(((1R,2S,5R)-5-(Isopropyl(methyl)amino)-2-((S)-2-oxo-3-((6-(trifluoromethyl)quinazolin-4-yl)amino)pyrrolidin-1-yl)cyclohexyl)carbamoyl)cyclohexyl)piperazin-1-yl)-9-oxononyl)-1-methyl-5-oxo-2-(pyridin-3-yl)pyrrolidine-3-carboxamide]	0.251	70
CC(C)N(C)[C@@H]1CC[C@H](N2CC[C@H](Nc3ncnc4ccc(C(F)(F)F)cc34)C2=O)[C@H](NC(=O)CCCCOCCCCCCCCOCCCCNC(=O)[C@H]2CC(=O)N(C)[C@@H]2c2cccnc2)C1 [Example 161, (2S,3S)-N-(4-((8-((5-(((1R,2S,5R)-5-(Isopropyl(methyl)amino)-2-((S)-2-oxo-3-((6-(trifluoromethyl)quinazolin-4-yl)amino)pyrrolidin-1-yl)cyclohexyl)amino)-5-oxopentyl)oxy)octyl)oxy)butyl)-1-methyl-5-oxo-2-(pyridin-3-yl)pyrrolidine-3-carboxamide]	0.794	76.67
CC(C)N(C)[C@@H]1CC[C@H](N2CC[C@H](Nc3ncnc4ccc(C(F)(F)F)cc34)C2=O)[C@H](NC(=O)C2CCN(CCOCCOCCOCCOCCNC(=O)[C@H]3CC(=O)N(C)[C@@H]3c3cccnc3)CC2)C1 [Example 147]	0.631	77
CC(C)N(C)[C@@H]1CC[C@H](N2CC[C@H](Nc3ncnc4ccc(C(F)(F)F)cc34)C2=O)[C@H](NC(=O)C2CCN(c3cnc(NCCOCCOCCNC(=O)[C@H]4CC(=O)N(C)[C@@H]4c4cccnc4)cn3)CC2)C1 [Example 162, N-((1R,2S,5R)-5-(Isopropyl(methyl)amino)-2-((S)-2-oxo-3-((6-(trifluoromethyl)quinazolin-4-yl)amino)pyrrolidin-1-yl)cyclohexyl)-1-(5-((2-(2-(2-((2S,3S)-1-methyl-5-oxo-2-(pyridin-3-yl)pyrrolidine-3-carboxamido)ethoxy)ethoxy)ethyl)amino)pyrazin-2-yl)piperidine-4-carboxamide]	1.58	66
CC(C)N(C)[C@@H]1CC[C@H](N2CC[C@H](Nc3ncnc4ccc(C(F)(F)F)cc34)C2=O)[C@H](NC(=O)[C@H]2CC[C@@H](NC(=O)COCCOCCNC(=O)CCNC(=O)[C@H]3CC(=O)N(C)[C@@H]3c3cccnc3)CC2)C1 [Example 82, (2S,3S)-N-(3-((2-(2-(2-(((1S,4s)-4-(((1R,2S,5R)-5-(Isopropyl(methyl)amino)-2-((S)-2-oxo-3-((6-(trifluoromethyl)quinazolin-4-yl)amino)pyrrolidin-1-yl)cyclohexyl)carbamoyl)cyclohexyl)amino)-2-oxoethoxy)ethoxy)ethyl)amino)-3-oxopropyl)-1-methyl-5-oxo-2-(pyridin-3-yl)pyrrolidine-3-carboxamide]	0.501	94
CC(C)N(C)[C@@H]1CC[C@H](N2CC[C@H](Nc3ncnc4ccc(C(F)(F)F)cc34)C2=O)[C@H](NC(=O)C2CCN(CCCCCCCCNC(=O)[C@H]3CC(=O)N(C)[C@@H]3c3cccnc3)CC2)C1 [Example 144, N-((1R,2S,5R)-5-(Isopropyl(methyl)amino)-2-((S)-2-oxo-3-((6-(trifluoromethyl)quinazolin-4-yl)amino)pyrrolidin-1-yl)cyclohexyl)-1-(8-((2S,3S)-1-methyl-5-oxo-2-(pyridin-3-yl)pyrrolidine-3-carboxamido)octyl)piperidine-4-carboxamide, 3Formic acid salt]	0.501	85.67
CC(C)N(C)[C@@H]1CC[C@H](N2CC[C@H](Nc3ncnc4ccc(C(F)(F)F)cc34)C2=O)[C@H](NC(=O)[C@H]2CC[C@H](N3CCN(CCCCCCCCNC(=O)[C@H]4CC(=O)N(C)[C@@H]4c4cccnc4)CC3)CC2)C1 [Example 146, (2S,3S)-N-(8-(4-((1R,4r)-4-(((1R,2S,5R)-5-(Isopropyl(methyl)amino)-2-((S)-2-oxo-3-((6-(trifluoromethyl)quinazolin-4-yl)amino)pyrrolidin-1-yl)cyclohexyl)carbamoyl)cyclohexyl)piperazin-1-yl)octyl)-1-methyl-5-oxo-2-(pyridin-3-yl)pyrrolidine-3-carboxamide]	0.316	83.08
CC(C)N(C)[C@@H]1CC[C@H](N2CC[C@H](Nc3ncnc4ccc(C(F)(F)F)cc34)C2=O)[C@H](NC(=O)C[C@H]2CC[C@H](NC(=O)CCOCCOCCOCCNC(=O)[C@H]3CC(=O)N(C)[C@@H]3c3cccnc3)CC2)C1 [Example 33, (2S,3S)-N-(2-(2-(2-(3-(((1R,4r)-4-(2-(((1R,2S,5R)-5-(Isopropyl(methyl)amino)-2-((S)-2-oxo-3-((6-(trifluoromethyl)quinazolin-4-yl)amino)pyrrolidin-1-yl)cyclohexyl)amino)-2-oxoethyl)cyclohexyl)amino)-3-oxopropoxy)ethoxy)ethoxy)ethyl)-1-methyl-5-oxo-2-(pyridin-3-yl)pyrrolidine-3-carboxamide]	0.316	89
CC(C)N(C)[C@@H]1CC[C@H](N2CC[C@H](Nc3ncnc4ccc(C(F)(F)F)cc34)C2=O)[C@H](NC(=O)[C@H]2CC[C@@H](NC(=O)CNC(=O)COCCOCCNC(=O)[C@H]3CC(=O)N(C)[C@@H]3c3cccnc3)CC2)C1 [Example 81, (2S,3S)-N-(2-(2-(2-((2-(((1S,4s)-4-(((1R,2S,5R)-5-(Isopropyl(methyl)amino)-2-((S)-2-oxo-3-((6-(trifluoromethyl)quinazolin-4-yl)amino)pyrrolidin-1-yl)cyclohexyl)carbamoyl)cyclohexyl)amino)-2-oxoethyl)amino)-2-oxoethoxy)ethoxy)ethyl)-1-methyl-5-oxo-2-(pyridin-3-yl)pyrrolidine-3-carboxamide]	–	94
CC(C)N(C)[C@@H]1CC[C@H](N2CC[C@H](Nc3ncnc4ccc(C(F)(F)F)cc34)C2=O)[C@H](NC(=O)[C@H]2CC[C@H](NC(=O)CCCO[C@H]3CC[C@H](OCCNC(=O)[C@H]4CC(=O)N(C5CCC5)[C@@H]4c4cccnc4)CC3)CC2)C1 [Example 14, (2S,3S)-1-cyclobutyl-N-(2-(((trans)-4-(4-(((trans)-4-(((1R,2S,5R)-5-(isopropyl(methyl)amino)-2-((S)-2-oxo-3-((6-(trifluoromethyl)quinazolin-4-yl)amino)pyrrolidin-1-yl)cyclohexyl)carbamoyl)cyclohexyl)amino)-4-oxobutoxy)cyclohexyl)oxy)ethyl)-5-oxo-2-(pyridin-3-yl)pyrrolidine-3-carboxamide]	–	47.24
CCN1C(=O)C[C@H](C(=O)NCCO[C@H]2CC[C@H](OCCCC(=O)N[C@H]3CC[C@H](C(=O)N[C@@H]4C[C@H](N(C)C(C)C)CC[C@@H]4N4CC[C@H](Nc5ncnc6ccc(C(F)(F)F)cc56)C4=O)CC3)CC2)[C@H]1c1cccnc1 [Example 11, (2S,3S)-1-ethyl-N-(2-(((1,4-trans)-4-(4-(((1,4-trans)-4-(((1R,2S,5R)-5-(isopropyl(methyl)amino)-2-((S)-2-oxo-3-((6-(trifluoromethyl)quinazolin-4-yl)amino)pyrrolidin-1-yl)cyclohexyl)carbamoyl)cyclohexyl)amino)-4-oxobutoxy)cyclohexyl)oxy)ethyl)-5-oxo-2-(pyridin-3-yl)pyrrolidine-3-carboxamide]	–	91.57
